Ends that are not written are not given here.
Key:
C57Bl/6J mice [1] = assay: Open field motor activity (OF) after CSD (Example 4); format: in vivo, mouse; details: 15 min open field
Procedure: (§1) The mouse chronic social defeat (“CSD”) model has been accepted as a model of PTSD [Flandreau, et al, 2018]. This model involves exposure of C57Bl/6J mice to chronic stress by aggressor mice (male CD-1 ex-breeders) for a defined period of 15 days. Starting from day 15, mice were further tested in the open field (OF) model.
Behavioral tests such as Open field motor activity (OF) were also conducted. See the schematic of FIG. 7.
In this model set up the test was conducted 15 days after the last CSD session. The mouse was placed on the Open Field apparatus floor in the center of empty arena for 15 min without exposure to any other stimuli. The following parameters were calculated from the data: distance moved, number of vertical rearing's, velocity and % resting time (no movement activity). Open field activity chambers (Med Associates Inc, St Albans, Vt.; 27×27×20.3 cm) are equipped with IR beams with red light conditions. A mouse is considered to have no movement activity when the mouse is not breaking two adjacent beams consecutively (distance between two adjacent beams is about 1.7 cm).

Male, Swiss Webster mice = assay: Naloxone-precipitated morphine withdrawal, CRH driven rodent model 2 (Example 6); format: in vivo, mouse
Procedure: A similar study was performed using a CRH antagonist (CP154, 526) in the precipitated withdrawal model.
Male, Swiss Webster mice were treated with seven (7) doses of Morphine 3.2 mg/kg i.p. (d1×5 and d2×2). Animals were then administered a test substance subcutaneously one hour after the last morphine injection with either: (i) nothing (morphine only); (ii) CRH antagonist (CP154, 526) or (iii) TCAP-1 and then an hour after the test substance the animals were administered naloxone i.p at 10 mg/kg, to induce withdrawal.
Two hours after last morphine treatment (i.e. after administration of Naloxone) the mice were immediately placed individually in an observation area and video recorded 20 minutes. The number of jumps (lifting of all feet off the ground) documented for 20 minutes.
(For description on CP154, 526 see for example, CNS Drug Reviews, Vol. 9, No. 1, pp 57-96, Seymour, Patricia A., et al, “The Pharmacology of CP-154,526, A Non-Peptide Antagonist of the CRH1 Receptor: A Review, incorporated herein by reference.)

Sprague-Dawley rat (SD) = assay: Restraint stress model, corticosterone (Example 7, FIG. 14 B); format: in vivo; details: amidated human TCAP-1 (SEQ ID NO: 2); restraint 30-60 minutes on successive days; dosed at day 1 and day 2; effect within 3 days
Text: Amidated mouse TCAP-1 (SEQ ID NO: 1) was suspended in 0.9% saline. [[…], Ambiopharm] for subcutaneous injection in the interscapular region and used in Examples 1, Amidated human TCAP-1 (SEQ ID NO: 2) was suspended in 0.9% saline. [10 nmol/Kg, Ambiopharm] was used in Example 7, for the SD-rat (FIG. 14 B).
(§2) The inventors, extended the behavioural activity in a severe restraint model the changes in a stress related biomarker such as corticosterone is depicted in FIG. 14. (See for example de Pablos, R. N. et al (2014), Creating a Rat model of Chronic Variate Stress. Bio-protocol 4(23): e1315.DOI).
(§3) In this model animals, Swiss Webster mice (SW) (FIG. 14 A) and Sprague-Dawley rat (SD) (FIG. 14 B) were restrained in confined spaces for upwards of 30-60 minutes on successive days. TCAP-1 was administered once at day 1 and at day 2 in the 5-day model.

[2] = test system: Male adult Sprague-Dawley rats; assay: Modified Open Field Test with noise pollution (Example 1); format: in vivo, rat
Text: Male adult Sprague-Dawley rats (˜350 g) treated for 3 months (1 injection/week) with either vehicle (0.9% saline) or TCAP-1 (25 nmoles/kg) were used in Example 1.
Behaviour—Modified Open Field Test
The Open Field Test is a behavioral test paradigm used to investigate anxiety-related behaviours in rodents (Bailey K R and Crawley J N, 2009, in: Buccafusco J J, editor. Source Methods of Behavior Analysis in Neuroscience. 2nd edition. Boca Raton (Fla.): CRC Press/Taylor & Francis; 2009. Chapter 5.). In this experiment, the animals were exposed to high frequency noise pollution to induce a stress response while the animals were in the OFT apparatus. The test was performed one week post last injection of the long-term (3 month) treatment with either vehicle (0.9% saline) or TCAP-1 (25 nmoles/kg). Animals were individually placed in a plexiglass box (50 L×50 W) and digitally recorded and tracked for five (5) minutes. In the centre of the box is a designated section termed the centre zone. Behaviours are then analyzed from videos and recorded for time spent in centre zone, distance travelled in centre zone, and total distance travelled. Moreover, peering behaviour, grooming behaviour, and rearing behaviour were also analyzed (definitions below).
(a) Peering: Digital recordings were analyzed for Peering behaviour. Peering behaviour was defined as the specific notion where animals would stand on their back hind limbs in order to look over the side of the glass wall (i.e, The event where an animal rears specifically to peer over the side of the apparatus). This behaviour can be interpreted as an explorative or anti-fear response.
(b) Grooming: Digital recordings were analyzed for Grooming behaviour. Grooming behaviour was defined as the animals cleaning their face or bodies, i.e., the event where an animal grooms himself (usually his hands and face).
(c) Rearing: Digital recordings were analyzed for Rearing behaviour. Rearing behaviour was defined as an event where animals stand on their hind limbs (i.e., the event where an animal gets on his hind limbs in exploration). This behaviour is interpreted as an explorative behaviour, which is a low anxiety response.
Animals were digitally recorded and tracked for five (5) minutes in the Open Field Test with noise pollution. The noise pollution was large construction noise, intermittent and not at predictable intervals. […] As rearing behaviour is highly associated with anti-anxious behaviour, this corroborates the data indicating TCAP-1 is reducing stress-related behaviour.

Swiss Webster mice = assay: Naloxone-precipitated morphine withdrawal, CRH driven rodent model 1 (Example 5); format: in vivo, mouse
Procedure: In one model, Swiss Webster mice were stressed following chronic opiate administration.
In this Example, TCAP-1 was administered at the graded doses, daily for three days prior to administration of morphine. Morphine was then administered at 3.2 mg/kg i.p. on day 4 (5 times) and 5 (twice), and then one hour the last dose of morphine, naloxone is administered i.p at 10 mg/kg, to induce withdrawal.
One hour after last morphine treatment (i.e. after administration of Naloxone) the mice were immediately placed individually in an observation area and video recorded 20 minutes. The number of jumps (lifting of all feet off the ground) documented for 20 minutes

Swiss Webster mice (SW) = assay: Restraint stress model, corticosterone (Example 7, FIG. 14 A); format: in vivo, mouse; details: restraint 30-60 minutes on successive days; dosed once at day 1 and day 2; effect in 5 days
Procedure: as §2, §3

C57Bl/6J mice [3] = assay: Chronic social defeat (CSD) model (Example 3); format: in vivo, mouse; details: subcutaneous once a day days 1-7; for attack latency (time between retreat and evaluating the predator): FIG. 8
Text: as §1
Experimental Set Up of Mice.
CD-1 mice were housed, one mouse per cage, during the experiments. C57Bl/6J mice were housed in pairs while not subjected to CSD. Mice are acclimated to the animal facility for minimum 5 days before the onset of the study.
CD-1 aggressor mice are determined by using the procedures by Golden et al. (2011). Screening involves three days of selection testing. After the screening and selection of 80 aggressor mice, the chronic social defeat (CSD) paradigm was conducted.
The CSD mouse group were subcutaneously injected once a day with vehicle or TCAP-1 days 1-7.
Under dim lighting a CSD mouse was subjected to direct exposure with a CD-1 aggressor mouse. […] The latency to the first attack was also recorded, and time needed to gain 60 s physical attack time. After the 10 min session, CSD mice were exposed to CD-1 mice through perforated transparent divider for 24 h. If the CD-1 mice are very aggressive (if wounding consistently exceeds veterinary guidelines), the exposure time can be shortened to 5 min or less.
This setup allows direct and continued olfactory, visual, auditory exposure for the rest of the day. On the following day, a CSD mouse is placed in a cage in similar fashion with 10 min direct exposure followed by chronic exposure through divider. Cycle is repeated for 15 days, replacing the […] with a new one every day until day 15. Thereafter, CSD mice remain caged next to the same CD-1 mice without any further attack sessions or rotations for days 16-17.
Attack latency is the period between retreat and confrontation. […] Aggressive contact time reflects the number of direct contacts. FIG. 9 illustrates that administration of TCAP-1, the animal will approach the predator and not retreat.

[4] = 25 nmoles/kg, 1 injection/week for 3 months, 5 min, vs vehicle

## Teneurin C-Terminal Associated Peptide-1 (QQLLGTGRVQGYDGYFVLSVEQYLELSDSANNIHFMRQSEI-NH2; not fully specified) [TCAP-1]
C57Bl/6J mice [1]
  anxiety toward surroundings: reduced anxiety toward their surroundings
C57Bl/6J mice [1]; FIG. 10
  number of vertical rearings: reduced rearing events were observed
Male, Swiss Webster mice; TCAP-1 250 nmole/Kg subcutaneously one hour after last morphine, versus CP154, 526 at 20 mg/Kg, FIG. 13
  number of jumps per 20 minutes after naloxone: efficacy
Sprague-Dawley rat (SD)
  rise in corticosterone: modulated the rise in corticosterone
[2]; 25 nmoles/kg, 1 injection/week for 3 months, tested one week post last injection, 5 min, vs vehicle
  time in the centre zone: significantly more time in the centre zone
[2]; [4]
  entries into centre zone: more entries into centre zone
  grooming behaviour: not found to be significantly different between groups
  peering behaviour: not found to be significantly different between groups
  rearing behaviour: significantly increased
[2]; chronic TCAP-1 administration
  stress-related behaviour in the Open Field Test with noise pollution: significantly decreased stress-related behaviour
Swiss Webster mice; graded doses daily for three days prior to morphine 3.2 mg/kg i.p., naloxone 10 mg/kg i.p., FIG. 12
  jumping activity (number of jumps per 20 minutes) following naloxone: dose dependent reduction in jumping activity
Swiss Webster mice; mice stressed following chronic opiate administration
  symptomology of precipitated withdrawal: efficiently modulated
Swiss Webster mice (SW)
  rise in corticosterone: modulated the rise in corticosterone
C57Bl/6J mice [3]
  attack latency (time between retreat and evaluating the predator): attack latency increased
C57Bl/6J mice [3]; listed as TCAp-1
  attack latency (time between retreat and evaluating the predator): reduces the time between retreat and evaluating the predator
C57Bl/6J mice [3]; FIG. 9
  aggressive contact time (number of direct contacts): increased

## CCCCN(CC)c1nc(C)nc2c1c(C)cn2-c1c(C)cc(C)cc1C [CP154, 526, reference compound]
Male, Swiss Webster mice; small molecule CRH antagonist, 20 mg/Kg subcutaneously
  symptomology of precipitated withdrawal: limited success

Source: US11426444B2, “Compositions, methods and uses for treating post-traumatic stress disorder” (priority 2017, dated 2022)
